Test results from BindingDB's records for doi:10.1021/jm5013243 (Monash University (Parkville Campus), 2015).
Values joined by “and” are separate entries in the source; they are usually repeats but may differ in a detail not shown here. Equal values may be shown once.

How the values were obtained:
[1] = molecular target: Muscarinic acetylcholine receptor M1 (Homo sapiens) (UniProt P11229); test: Displacement of [3H]NMS from human mAChR1 receptor expressed in F1pIn CHO cells after 60 mins by scintillation counting analysis
Chain of Muscarinic acetylcholine receptor M1 (Homo sapiens) (P11229 whole entry, looked up): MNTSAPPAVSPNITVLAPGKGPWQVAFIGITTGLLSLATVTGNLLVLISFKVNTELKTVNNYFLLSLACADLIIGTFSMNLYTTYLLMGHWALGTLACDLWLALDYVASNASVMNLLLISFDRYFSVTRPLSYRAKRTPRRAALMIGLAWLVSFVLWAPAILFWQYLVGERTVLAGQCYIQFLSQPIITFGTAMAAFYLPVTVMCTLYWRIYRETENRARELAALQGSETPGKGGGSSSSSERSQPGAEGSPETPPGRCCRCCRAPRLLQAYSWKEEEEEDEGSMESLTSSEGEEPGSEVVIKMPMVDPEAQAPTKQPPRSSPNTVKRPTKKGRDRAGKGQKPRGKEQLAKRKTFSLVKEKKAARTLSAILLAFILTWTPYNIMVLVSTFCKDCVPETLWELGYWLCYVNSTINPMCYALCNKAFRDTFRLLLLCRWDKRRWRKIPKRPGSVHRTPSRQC

[2] = molecular target: Muscarinic acetylcholine receptor M1 (Homo sapiens) (UniProt P11229); test: Partial agonist activity at human mAChR1 receptor expressed in F1pIn CHO cells assessed as induction of intracellular calcium mobilization
[3] = molecular target: Muscarinic acetylcholine receptor M1 (Homo sapiens) (UniProt P11229); test: Agonist activity at human mAChR1 receptor expressed in F1pIn CHO cells assessed as induction of intracellular calcium mobilization

IC50 [1] | EC50 [2] | EC50 [3] | Structure (SMILES)
1.86 µM and 1.87 µM | – | – | O=C1COc2ccccc2N1CCCN1CCN(c2cccc(Cl)c2Cl)CC1
3.25 µM and 3.24 µM | – | – | O=C1COc2ccccc2N1CCCN1CCC(c2noc3cc(F)ccc23)CC1
4.19 µM and 4.17 µM | 1.04 µM and 1.05 µM | – | O=C1COc2ccccc2N1CCCN1CCN(c2nsc3ccccc23)CC1
8.53 µM and 8.51 µM | – | 0.129 µM | O=C(Cc1ccccc1)NC1CCN(CCCN2C(=O)COc3ccccc32)CC1 [N-{1-[3-(3-Oxo-2,3-dihydrobenzo[1,4]oxazin-4-yl)propyl]-piperidin-4-yl}-2-phenylacetamide]
5.18 µM and 5.13 µM | – | – | COc1ccccc1N1CCN(CCCN2C(=O)COc3ccccc32)CC1
4.27 µM and 4.26 µM | – | – | O=C1COc2ccccc2N1CCCN1CCN(c2cccc3[nH]c(=O)oc23)CC1
